Test results published in patent US20250250559A1, “METHOD TO ANALYZE AND OPTIMIZE GENE EDITING MODULES AND DELIVERY APPROACHES” (Hoffmann-La Roche Inc., priority 2016, published 2025).
“And” between values parts separate entries of the source, which are not always exact repeats. Identical values can stand only once.

What was measured:
DPH1 gene = assay: PM resistant colony count after DPH1 gene editing (PAC cassette integration); assay type: cell-based, human; conditions: for # of PM resistant colonies (40,000 seeded cells): MCF7, individual samples A-D; for # of PM resistant colonies (mean of the samples) / # of PM resistant colonies: TF eff. = 38%; for # of PM resistant colonies: DPH1 assay (integr. vs. k.o.), individual samples; for # of PM resistant colonies (80,000 seeded cells): DPH1 assay editing entities, MCF-7, individual replicates, TF eff. = 33%
Method: (§1) MCF7 cells (Brooks, et al. 1973) were originally obtained from ATCC (subsequently propagated in an in-house cell bank) and maintained in RPMI […] medium supplemented with 10% FCS, 2 mM L-Glutamine and penicillin/streptomycin at 37° C. and 85% humidity. For transfection of plasmids harboring gene-editing modules, 3,000,000 cells were seeded in a 10 cm diameter culture dish and cultivated at 37° C. and humidified 5% CO2. 24 h after seeding, cells were transfected with 20 μg total DNA using JetPEI (Polyplus) according to the manufacturer's protocol but with an N/P ratio of 6:1. Transfection efficiency was determined after 24 h by flow cytometry (FACS Calibur, BD biosciences) of cells that were transfected with a modified eGFP expression plasmid (Zhang, et al. 1996).
(§2) Plasmids encoding CRISPR/Cas9 gene-editing entities (i.e. knock-out and integration systems) against Dph1 (gRNA target sequence: […] (SEQ ID NO: 01) derived from RefSeq: NM_001383) and Dph2 (gRNA target sequence: […] (SEQ ID NO: 02) derived from RefSeq: NM_001039589, NM_001384), and scrambled control (gRNA sequence: […] (SEQ ID NO: 03)) were obtained from OriGene. This system comprises one plasmid expressing a ˜100 nt gRNA under control of a U6 promoter as well as Cas9 nuclease under control of a CMV promoter and a Donor plasmid with a promoter-less GFP/PM expression cassette flanked by homologous arms to the target gene (Dph1 or Dph2). Additional Dph1 gRNA sequence variants of different sizes (OriGene) […]
MCF7 cells which have all chromosomal copies of DPH1 or DPH2 inactivated are resistant to diphtheria toxin (Stahl, et al. 2015). Thus, occurrence and frequency of toxin resistant cells/colonies upon CRISPR/Cas inflicted gene inactivation provides a measure for efficiency of inactivation of all gene copies. Therefore, MCF/cells were transfected as described in Example 1 with (i) a GFP expression plasmid as transfection control, (ii) the CRISPR/Cas9 Dph1 or Dph2 knock-out/integration system and (iii) knock-out/integration entities containing a scrambled gRNA to determine Cas9 independent integration frequencies. After determination of transfection efficiency, cells were seeded in 6-well plates. […] RPMI medium was exchanged by RPMI medium containing DT or PM or both toxins 3 days after cell seeding. Exchange of medium was repeated every 2-3 days until all dead cells were removed from the plates and actively growing colonies could be detected via microscopic inspection. Thereafter (between day 12 and day 14 after start of toxin exposure), cells were washed 3 times with PBS and subsequently stained with ice cold methylene blue (0.2% in 50% EtOH). Methylene blue solution was subsequently removed and the plates were carefully washed under running water. Finally, cell colonies were counted under the microscope with a 5 mm grid foil.
CRISPR/Cas module for targeted integration contains a puromycin (PM) resistance gene expression cassette without promoter to avoid transient expression. Thus, detection of integration of recombinant sequences into the genome was detected by determining sensitivity of cells towards PM. A concentration of […] PM (which quantitatively eliminates wildtype MCF7 cells) was applied to select MCF7 cells with stably integrated expression cassettes. PM-resistant colonies selected with the same procedure as described above for the DT selection and visualized and quantified (between 12 and 14 days after start of selection) in the same manner as described above for toxin resistant colonies. Number of PM resistant colonies obtained with non-target guide sequences (scrambled gRNA, FIG. 1) reflect the nonspecific integration background. Increase in colonies (above nonspecific background) obtained with target-gene gRNAs which are PM-resistant but toxin sensitive reflect integration into just one target allele, leaving the other dph1 or dph2 allele unaffected. […]

DPH2 gene = assay: DT resistant colony count after DPH2 gene editing; assay type: cell-based, human; conditions: DPH2 assay (integr. vs. k.o.)
Method: as §1, §2
MCF7 cells which have all chromosomal copies of DPH1 or DPH2 inactivated are resistant to diphtheria toxin (Stahl, et al. 2015). Thus, occurrence and frequency of toxin resistant cells/colonies upon CRISPR/Cas inflicted gene inactivation provides a measure for efficiency of inactivation of all gene copies. Therefore, MCF/cells were transfected as described in Example 1 with (i) a GFP expression plasmid as transfection control, (ii) the CRISPR/Cas9 Dph1 or Dph2 knock-out/integration system and (iii) knock-out/integration entities containing a scrambled gRNA to determine Cas9 independent integration frequencies. After determination of transfection efficiency, cells were seeded in 6-well plates. For quantification of homozygous knock-out events by DT 20000 cells were seeded and for quantification of integration events by PM or both events 40000 cells were seeded. RPMI medium was exchanged by RPMI medium containing DT or PM or both toxins 3 days after cell seeding. Exchange of medium was repeated every 2-3 days until all dead cells were removed from the plates and actively growing colonies could be detected via microscopic inspection. Thereafter (between day 12 and day 14 after start of toxin exposure), cells were washed 3 times with PBS and subsequently stained with ice cold methylene blue (0.2% in 50% EtOH). Methylene blue solution was subsequently removed and the plates were carefully washed under running water. Finally, cell colonies were counted under the microscope with a 5 mm grid foil.

[1] = DPH1 (gRNA length), TF eff. = 31%
[2] = DPH1 assay (integr. vs. (integr. + k.o.)), TF eff. = 67*%
[3] = DPH1 assay (integr. vs. k.o.), 10,000 seeded cells
[4] = DPH1 assay (integr. vs. k.o.), 20,000 seeded cells
[5] = DPH1 assay (integr. vs. k.o.), 40,000 seeded cells

In the case of “20 mer SpCas9 scRNA: Scrambled control gRNA GCACTACCAGAGCTAACTCA (SEQ ID NO: 03) with SpCas9 and donor plasmid [reference compound]”, the “# of PM resistant colonies (40,000 seeded cells)” value (DPH1 gene; DPH1 (gRNA length), TF eff. = 31%, listed as 20 mer scRNA) is reported as 7 and 6 and 9 and 10, the “# of PM resistant colonies (40,000 seeded cells) (unheaded second sub-column: mean)” value (DPH1 gene; [1]) is reported as 8 and the “# of PM resistant colonies (40,000 seeded cells)” value (DPH1 gene; DPH1 assay (integr. vs. (integr. + k.o.)), TF eff. = 67*%, listed as 20 mer scRNA) is reported as 10 (2×) and 9 and 16. For the same substance, the “# of PM resistant colonies (40,000 seeded cells)” value (DPH1 gene; DPH1 assay (integr. vs. (integr. + k.o.)), TF eff. = 67*%, listed as SCRNA) was 16, the “# of PM resistant colonies (40,000 seeded cells)” value (DPH1 gene; DPH1 assay (integr. vs. (integr. + k.o.)), TF eff. = 67*%, listed as scRNA) was 10 (2×) and 9 and the “# of PM resistant colonies (40,000 seeded cells) (unheaded second sub-column: mean)” value (DPH1 gene; [2]) was 11. For the same substance, the “# of PM resistant colonies (mean of the samples)” value (DPH1 gene; [3]) was 3, the “# of PM resistant colonies (mean of the samples)” value (DPH1 gene; [4]) was 9 and the “# of PM resistant colonies (mean of the samples)” value (DPH1 gene; [5]) was 12. For the same substance, the “# of PM resistant colonies” value (DPH1 gene; MCF7, 10,000 seeded cells) was 3 (2×) and 2 and 4, the “# of PM resistant colonies” value (DPH1 gene; MCF7, 10,000 seeded cells, listed as CRISPR Cas9 SCRNA) was 3 (2×) and 2 and 4 and the “# of PM resistant colonies” value (DPH1 gene; MCF7, 20,000 seeded cells) was 11 and 7 and 10 and 9. The “# of PM resistant colonies” value (DPH1 gene; MCF7, 20,000 seeded cells, listed as CRISPR Cas9 SCRNA) was 11 and 10 and 9, the “# of PM resistant colonies” value (DPH1 gene; MCF7, 20,000 seeded cells, listed as CRISPR Cas9 scRNA) was 7 and the “# of PM resistant colonies” value (DPH1 gene; MCF7, 40,000 seeded cells) was 17 and 13 and 9 and 10. For the same substance, the “# of PM resistant colonies” value (DPH1 gene; MCF7, 40,000 seeded cells, listed as CRISPR Cas9 SCRNA) was 17 and 9 and 10, the “# of PM resistant colonies” value (DPH1 gene; MCF7, 40,000 seeded cells, listed as CRISPR Cas9 scRNA) was 13 and the “# of PM resistant colonies (80,000 seeded cells)” value (DPH1 gene) was 4 and 3 and 5. The “fold less PMr colonies than with DPH1-specific gRNA” value (DPH1 gene; otherwise identical conditions) was 2 fold, the “# of DT resistant colonies (40,000 seeded cells) (unheaded second sub-column: mean)” value (DPH2 gene; MCF7) was 0 and the “# of DT resistant colonies (40,000 seeded cells)” value (DPH2 gene; MCF7, individual samples A-D) was 0.

“20 mer SpCas9 DPH1 gRNA: Plasmids encoding SpCas9 and Dph1 gRNA (target CAGGGCGGCCGAGACGGCCC, SEQ ID NO: 01) plus PAC donor plasmid, OriGene” was tested, and the “# of PM resistant colonies (40,000 seeded cells)” value (DPH1 gene; [1]) was 16 (2×) and 20 and 8, the “# of PM resistant colonies (40,000 seeded cells)” value (DPH1 gene; DPH1 (gRNA length), TF eff. = 31%, listed as 20 mer Dph1 CRISPR Cas9 gRNA) was 16 (2×) and 20 and 8 and the “# of PM resistant colonies (40,000 seeded cells) (unheaded second sub-column: mean)” value (DPH1 gene; [1]) was 15. For the same substance, the “# of PM resistant colonies (40,000 seeded cells)” value (DPH1 gene; [2]) was 25 (2×) and 22 and 24, the “# of PM resistant colonies (40,000 seeded cells)” value (DPH1 gene; DPH1 assay (integr. vs. (integr. + k.o.)), TF eff. = 67*%, listed as Dph1 CRISPR Cas9 gRNA) was 25 (2×) and 22 and 24 and the “# of PM resistant colonies (40,000 seeded cells) (unheaded second sub-column: mean)” value (DPH1 gene; [2]) was 24. The “# of PM resistant colonies (mean of the samples)” value (DPH1 gene; [3]) was 9, the “# of PM resistant colonies (mean of the samples)” value (DPH1 gene; [4]) was 13 and the “# of PM resistant colonies (mean of the samples)” value (DPH1 gene; [5]) was 24. For the same substance, the “# of PM resistant colonies” value (DPH1 gene; MCF7, 10,000 seeded cells) was 7 and 10 (2×) and 29, the “# of PM resistant colonies” value (DPH1 gene; MCF7, 10,000 seeded cells, listed as CRISPR Cas9 Dph1 gRNA) was 7 and 10 (2×) and the “# of PM resistant colonies” value (DPH1 gene; MCF7, 20,000 seeded cells) was 18 and 13 (2×) and 6. For the same substance, the “# of PM resistant colonies” value (DPH1 gene; MCF7, 20,000 seeded cells, listed as CRISPR Cas9 Dph1 gRNA) was 18 and 13 (2×) and 6, the “# of PM resistant colonies” value (DPH1 gene; MCF7, 40,000 seeded cells) was 29 and 12 and 30 and 24 and the “# of PM resistant colonies” value (DPH1 gene; MCF7, 40,000 seeded cells, listed as CRISPR Cas9 Dph1 gRNA) was 29 and 12 and 30 and 24. The “# of PM resistant colonies (80,000 seeded cells)” value (DPH1 gene) was 14 and 11 and 9 and 10 and the “integration efficacy in dependence on gRNA length” value (DPH1 gene; PMr colonies) was “Targeted integration clearly above background was observed”.
